# Experimental data published in patent publication US7384959B2, “Treatment of convulsive states” (priority 1999, dated 2008).
# Marks after values point to notes of the source that are not given here.
# Legend:
# [1] = tested on: rat; test: barbital interaction (sleep induction) test; format: in vivo; details: for NUMBER OF RATS SLEEPING: 10 rats per group; for SLEEP DURATION mean ± s.e.m.: maximum 6 hours after barbital injection
# Text: The following Tables report the results of the Irwin, PTZ and barbital interaction (sleep induction) tests. Description of these tests may be found in Psychopharmacologica, 13:222-257 (1968), Krall et al, Epilepsia 19:409-428 (1978), and Simon et al, J. Pharmacol, Paris 13:241-252 (1982). See also Roux et al, Phoenix international Pharmacology Reports Nos. D30.2061/2 and D99.021/2.
# In Table 3, the following apply: Student's t Test: NS=Not Significant; *=p<0.05; **=p<0.01; ***=<0.001 Fisher's Exact Test: (number of rats sleeping) No indication=Not Significant; +=p<0.05; ++=p<0.01; +++=p<0.001 • (#): maximum=6 hours after barbital injection (taken 50 minutes after barbital injection).
# [2] = cited from earlier work
smiles,measurement,setting,value
"COC(=O)[C@@H](c1ccccc1)[C@@H]1CCCCN1 [l-MPH, l-threo-Methylphenidate]",SLEEP DURATION % change from control,[1]; 0.5 mg/kg s.c. −30 min,+3%
same,NUMBER OF RATS SLEEPING,[1]; 0.5 mg/kg s.c. −30 min,9
same,SLEEP DURATION mean ± s.e.m.,[1]; 0.5 mg/kg s.c. −30 min,63.8 ± 18.5 NS min
same,SLEEP DURATION % change from control,[1]; 2 mg/kg s.c. −30 min,−85%
same,NUMBER OF RATS SLEEPING,[1]; 2 mg/kg s.c. −30 min,4 +
same,SLEEP DURATION mean ± s.e.m.,[1]; 2 mg/kg s.c. −30 min,9.5 ± 6.4** min
same,SLEEP DURATION % change from control,[1]; 4 mg/kg s.c. −30 min,−93%
same,NUMBER OF RATS SLEEPING,[1]; 4 mg/kg s.c. −30 min,6
same,SLEEP DURATION mean ± s.e.m.,[1]; 4 mg/kg s.c. −30 min,4.3 ± 2.3*** min
same,SLEEP DURATION % change from control,[1]; 8 mg/kg s.c. −30 min,−79%
same,NUMBER OF RATS SLEEPING,[1]; 8 mg/kg s.c. −30 min,1 +++
same,SLEEP DURATION mean ± s.e.m.,[1]; 8 mg/kg s.c. −30 min,13.3 ± 13.3 min
same,effect on barbital-induced sleep,"[1]; rat, in vivo",antagonise barbital-induced sleep
same,systemic availability following oral dosing,[2],very little l-MPH enters the circulation or becomes available to the brain
